From patent EP4745135A1 (Gluetacs Therapeutics (Shanghai) Co., Ltd., priority 2023, dated 2025) come the findings set out here.

What is called inhibition is the change of the read-out against control, counted positive when it falls.

One assay deals with T1, CK1α (Homo sapiens, UniProt P48729+Q96SW2).
T1 construct: effects of the compounds of the present disclosure on the expression of target proteins in cells; endogenous in cells; host or cells: human PBMCs (Milecell Biotechnologies)
Briefly: Western blot, degradation of substrate protein in hPBMCs. Particulars: 24 hours treatment, compounds at 50 nM and 500 nM (concentration behind the class not stated). Type of assay: cell-based.

The target in a further assay is T2, IKZF1 (Homo sapiens, UniProt Q13422+Q96SW2).
T2 construct: effects of the compounds of the present disclosure on the expression of target proteins in cells; endogenous in cells; host or cells: human PBMCs (Milecell Biotechnologies)
T2 sequence (Q13422 whole entry): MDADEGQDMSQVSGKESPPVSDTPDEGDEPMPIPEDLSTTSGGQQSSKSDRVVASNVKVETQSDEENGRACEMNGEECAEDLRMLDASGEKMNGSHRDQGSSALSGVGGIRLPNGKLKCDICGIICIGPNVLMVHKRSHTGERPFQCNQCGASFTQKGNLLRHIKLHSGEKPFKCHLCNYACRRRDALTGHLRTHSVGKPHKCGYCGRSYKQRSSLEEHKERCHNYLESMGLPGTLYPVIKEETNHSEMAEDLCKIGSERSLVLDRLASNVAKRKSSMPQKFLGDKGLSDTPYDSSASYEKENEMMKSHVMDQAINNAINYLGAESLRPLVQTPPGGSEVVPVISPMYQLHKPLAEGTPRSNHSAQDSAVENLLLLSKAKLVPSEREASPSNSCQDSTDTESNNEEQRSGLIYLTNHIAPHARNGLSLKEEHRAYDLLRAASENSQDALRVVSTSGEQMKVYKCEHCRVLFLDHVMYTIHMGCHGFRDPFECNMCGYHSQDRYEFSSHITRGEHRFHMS
T2 sequence (Q96SW2 whole entry): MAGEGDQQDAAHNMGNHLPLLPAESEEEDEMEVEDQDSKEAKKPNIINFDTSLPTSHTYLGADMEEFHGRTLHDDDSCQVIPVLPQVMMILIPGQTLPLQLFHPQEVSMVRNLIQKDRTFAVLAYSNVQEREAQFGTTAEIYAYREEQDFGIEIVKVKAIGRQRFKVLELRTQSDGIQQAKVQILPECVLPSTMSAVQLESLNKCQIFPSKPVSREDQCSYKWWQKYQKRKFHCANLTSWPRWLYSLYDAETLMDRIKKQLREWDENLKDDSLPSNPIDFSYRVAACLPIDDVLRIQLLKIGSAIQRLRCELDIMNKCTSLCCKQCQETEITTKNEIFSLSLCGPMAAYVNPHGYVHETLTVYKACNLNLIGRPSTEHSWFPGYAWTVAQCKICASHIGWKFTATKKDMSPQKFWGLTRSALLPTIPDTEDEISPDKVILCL
T2 sequence (Q16531 whole entry partner): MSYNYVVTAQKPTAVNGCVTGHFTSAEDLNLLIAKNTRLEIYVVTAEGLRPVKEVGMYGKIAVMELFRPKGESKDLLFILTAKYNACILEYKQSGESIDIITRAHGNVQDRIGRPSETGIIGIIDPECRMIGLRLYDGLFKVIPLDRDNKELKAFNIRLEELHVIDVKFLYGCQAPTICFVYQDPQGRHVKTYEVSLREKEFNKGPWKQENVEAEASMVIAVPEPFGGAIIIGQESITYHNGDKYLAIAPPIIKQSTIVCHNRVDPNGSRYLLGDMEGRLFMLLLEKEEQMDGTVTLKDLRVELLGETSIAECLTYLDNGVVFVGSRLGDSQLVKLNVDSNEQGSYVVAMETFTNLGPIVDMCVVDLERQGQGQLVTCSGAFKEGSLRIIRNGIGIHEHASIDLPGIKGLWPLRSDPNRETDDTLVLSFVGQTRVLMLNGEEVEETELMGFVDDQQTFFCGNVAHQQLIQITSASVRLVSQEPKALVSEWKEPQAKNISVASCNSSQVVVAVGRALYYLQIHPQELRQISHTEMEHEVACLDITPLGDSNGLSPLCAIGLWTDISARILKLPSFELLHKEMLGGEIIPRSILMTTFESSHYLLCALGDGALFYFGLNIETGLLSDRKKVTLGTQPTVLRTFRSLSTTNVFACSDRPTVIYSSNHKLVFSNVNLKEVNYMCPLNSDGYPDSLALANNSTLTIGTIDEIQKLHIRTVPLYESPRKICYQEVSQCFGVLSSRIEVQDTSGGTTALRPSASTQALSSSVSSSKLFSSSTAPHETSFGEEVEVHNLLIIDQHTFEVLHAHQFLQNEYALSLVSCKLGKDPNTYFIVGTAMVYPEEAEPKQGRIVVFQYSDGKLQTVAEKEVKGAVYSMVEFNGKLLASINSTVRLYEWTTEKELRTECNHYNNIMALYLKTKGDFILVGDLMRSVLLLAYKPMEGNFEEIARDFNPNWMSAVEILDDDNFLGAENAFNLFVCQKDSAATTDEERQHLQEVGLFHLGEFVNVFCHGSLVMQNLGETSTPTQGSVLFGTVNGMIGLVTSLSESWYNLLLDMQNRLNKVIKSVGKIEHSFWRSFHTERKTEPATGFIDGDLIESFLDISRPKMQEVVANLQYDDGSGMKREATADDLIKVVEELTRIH
The assay is described as above. The class given is cell-based. To be noted: 24 hours treatment, compounds at 50 nM and 500 nM (concentration behind the class not stated).

For a further assay, the target named is T3, IKZF2 (Homo sapiens, UniProt Q96SW2+Q9UKS7).
T3 construct: effects of the compounds of the present disclosure on the expression of target proteins in cells; endogenous in cells; host or cells: human PBMCs (Milecell Biotechnologies)
T3 sequence (Q9UKS7 whole entry): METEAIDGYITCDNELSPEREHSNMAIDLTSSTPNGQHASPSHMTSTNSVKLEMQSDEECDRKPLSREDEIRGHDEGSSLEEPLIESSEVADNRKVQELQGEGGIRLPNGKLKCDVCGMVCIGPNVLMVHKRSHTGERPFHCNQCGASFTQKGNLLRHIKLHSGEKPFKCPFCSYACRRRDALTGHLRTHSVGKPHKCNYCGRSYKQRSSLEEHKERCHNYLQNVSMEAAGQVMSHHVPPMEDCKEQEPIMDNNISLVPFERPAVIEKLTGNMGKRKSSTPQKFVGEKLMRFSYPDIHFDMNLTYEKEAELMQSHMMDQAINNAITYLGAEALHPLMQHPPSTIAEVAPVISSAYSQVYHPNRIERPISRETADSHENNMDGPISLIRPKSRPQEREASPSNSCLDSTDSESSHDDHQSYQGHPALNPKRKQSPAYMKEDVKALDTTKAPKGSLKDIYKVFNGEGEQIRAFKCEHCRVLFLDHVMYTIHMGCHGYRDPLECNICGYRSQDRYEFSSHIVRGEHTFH
T3 sequence (Q96SW2 whole entry): as the sequence (Q96SW2 whole entry) above
T3 sequence (Q16531 whole entry partner): as the sequence (Q16531 whole entry partner) above
The description is as above. The class given is cell-based. To be noted: 24 hours treatment, compounds at 50 nM and 500 nM (concentration behind the class not stated).

A further assay deals with T4, IKZF3 (Homo sapiens, UniProt Q96SW2+Q9UKT9).
T4 construct: effects of the compounds of the present disclosure on the expression of target proteins in cells; endogenous in cells; host or cells: human PBMCs (Milecell Biotechnologies)
T4 sequence (Q9UKT9 whole entry): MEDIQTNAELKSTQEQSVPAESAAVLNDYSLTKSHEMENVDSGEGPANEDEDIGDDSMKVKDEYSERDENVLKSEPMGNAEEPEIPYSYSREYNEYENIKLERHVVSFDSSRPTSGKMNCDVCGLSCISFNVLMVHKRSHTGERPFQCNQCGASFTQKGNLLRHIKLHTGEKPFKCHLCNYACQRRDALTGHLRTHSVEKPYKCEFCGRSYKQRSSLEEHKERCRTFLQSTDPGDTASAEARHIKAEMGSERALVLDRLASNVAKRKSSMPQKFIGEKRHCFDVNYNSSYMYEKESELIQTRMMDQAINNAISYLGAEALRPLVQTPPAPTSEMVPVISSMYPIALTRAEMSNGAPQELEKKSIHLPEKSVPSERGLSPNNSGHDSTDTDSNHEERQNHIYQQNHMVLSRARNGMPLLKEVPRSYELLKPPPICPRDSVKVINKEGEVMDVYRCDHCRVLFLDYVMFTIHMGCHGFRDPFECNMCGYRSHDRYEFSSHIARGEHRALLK
T4 sequence (Q96SW2 whole entry): as the sequence (Q96SW2 whole entry) above
T4 sequence (Q16531 whole entry partner): as the sequence (Q16531 whole entry partner) above
Described as above. Type of assay: cell-based. Particulars: 24 hours treatment, compounds at 50 nM and 500 nM (concentration behind the class not stated).

A further assay addresses T5, WEE1 (Homo sapiens, UniProt P30291+Q96SW2).
T5 construct: effects of the compounds of the present disclosure on the expression of target proteins in cells; endogenous in cells; host or cells: human PBMCs (Milecell Biotechnologies)
The description is as above. The class given is cell-based. Particulars: 24 hours treatment, compounds at 50 nM and 500 nM (concentration behind the class not stated).

A further assay deals with GSPT1. The assay is described as above. Particulars: 24 hours treatment, compounds at 50 nM and 500 nM (concentration behind the class not stated). The class given is cell-based, Human.
For assay [1], the target named is T6, human Cereblon WT GST-tagged protein (Homo sapiens, UniProt Q96SW2).
T6 construct: purchased CISBIO 64BDCRBNPEH
T6 sequence (Q96SW2 whole entry): as the sequence (Q96SW2 whole entry) above
Kind of assay: CRBN-binding affinity, HTRF (CEREBLON BINDING kit). Particulars: for inhibition at 0.5 µM: read-out: Inhibition Rate at 0.5 µM (%); for inhibition at 2 µM: read-out: Inhibition Rate at 2 µM (%). A general note: In TR-FRET formats the signal depends on donor and acceptor labels being close together.

The test system of assay [2] is Human monocytic leukemia cell line: THP-1. Kind of assay: Tumor cell proliferation inhibition (CellTiter-Meiluncell luminescent cell viability assay). Particulars: THP-1, 96 h; for inhibition at 0.01 µM: read-out: Inhibition Rate at 10 nM (%); for inhibition at 0.5 µM: read-out: Inhibition Rate at 500 nM (%).
Method: (§1) The tumor cells used herein were cultured in a cell culture medium listed in table 2 at 37°C in an incubator with 5% CO2. Prior to experimentation, all cell lines used were correctly identified by STR profiling, and tested negative for mycoplasma contamination using a mycoplasma detection kit through routine screenings.
(§2) The IC50 values of the compounds of the present disclosure (including the compounds in Table 1 and Examples) were determined using the CellTiter-Meiluncell Luminescent Cell Viability Assay Kit from Dalian Meilun Biotech Co., Ltd. The detailed procedure is as follows: Tumor cells were seeded in 96-well cell culture plates at the densities specified in Table 3. On the following day, the test compounds of the present disclosure were subjected to serial dilution. The dilution can be performed according to one of the following two methods: • (1) The first dilution method: The test compounds of the present disclosure (including the compounds in Table 1 and Examples) were subjected to 5-fold serial dilutions starting from a highest concentration of 2000 µM, resulting in a total of 9 concentrations from high to low (2000, 400, 80, 16, 3.2, 0.64, 0.128, 0.0256, 0.00512 µM). Subsequently, 0.5 µL of the test compound dilution was transferred into the 96-well plate containing the cells, with each well containing 100 µL of cell culture medium. […] Into the 96-well plate, the diluted test compounds and corresponding detection reagents were added, resulting in final test compound concentrations of 500 nM and 10 nM, respectively. The experimental procedure is described below using the diluted 2 µM test compound as an example.
(§3) 0.5 µL of the aforementioned diluted compound of the present disclosure (including the compounds in Table 1 and Examples) was added to the seeded cells in 100 µL of medium, yielding a final test compound concentration of 10 nM. After the cells were treated with the compounds of the present disclosure for a specified period, the cell viability assay reagent was added to the culture medium according to the kit's instructions to determine cell viability. […] All controls were treated using the same procedure as the compounds of the present disclosure. The growth inhibition curves for the compounds of the present disclosure were plotted using Prism GraphPad software, and the IC50 values were calculated therefrom.
Assay [3] deals with Human colon cancer cell line: SW620. Described as above. Particulars: SW-620, 96 h; for inhibition at 0.01 µM: read-out: Inhibition Rate at 10 nM (%); for inhibition at 0.5 µM: read-out: Inhibition Rate at 500 nM (%).
Method: as §1, §2, §3
The test system of assay [4] is Human malignant melanoma cell line: A375. The description is as above. Particulars: A-375, 96 h; for inhibition at 0.01 µM: read-out: Inhibition Rate at 10 nM (%); for inhibition at 0.5 µM: read-out: Inhibition Rate at 500 nM (%).

T1 sequence (P48729 whole entry): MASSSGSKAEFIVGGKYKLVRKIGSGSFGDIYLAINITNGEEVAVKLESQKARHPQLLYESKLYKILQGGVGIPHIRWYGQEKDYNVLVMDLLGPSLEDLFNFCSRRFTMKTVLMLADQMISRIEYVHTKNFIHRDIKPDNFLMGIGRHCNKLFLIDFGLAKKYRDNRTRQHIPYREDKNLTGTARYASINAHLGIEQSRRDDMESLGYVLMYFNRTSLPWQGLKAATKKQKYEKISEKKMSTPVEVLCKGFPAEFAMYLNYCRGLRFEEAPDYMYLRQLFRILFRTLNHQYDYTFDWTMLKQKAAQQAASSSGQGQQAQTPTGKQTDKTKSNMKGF
T1 sequence (Q96SW2 whole entry): as the sequence (Q96SW2 whole entry) above
T1 sequence (Q16531 whole entry partner): as the sequence (Q16531 whole entry partner) above
T5 sequence (P30291 whole entry): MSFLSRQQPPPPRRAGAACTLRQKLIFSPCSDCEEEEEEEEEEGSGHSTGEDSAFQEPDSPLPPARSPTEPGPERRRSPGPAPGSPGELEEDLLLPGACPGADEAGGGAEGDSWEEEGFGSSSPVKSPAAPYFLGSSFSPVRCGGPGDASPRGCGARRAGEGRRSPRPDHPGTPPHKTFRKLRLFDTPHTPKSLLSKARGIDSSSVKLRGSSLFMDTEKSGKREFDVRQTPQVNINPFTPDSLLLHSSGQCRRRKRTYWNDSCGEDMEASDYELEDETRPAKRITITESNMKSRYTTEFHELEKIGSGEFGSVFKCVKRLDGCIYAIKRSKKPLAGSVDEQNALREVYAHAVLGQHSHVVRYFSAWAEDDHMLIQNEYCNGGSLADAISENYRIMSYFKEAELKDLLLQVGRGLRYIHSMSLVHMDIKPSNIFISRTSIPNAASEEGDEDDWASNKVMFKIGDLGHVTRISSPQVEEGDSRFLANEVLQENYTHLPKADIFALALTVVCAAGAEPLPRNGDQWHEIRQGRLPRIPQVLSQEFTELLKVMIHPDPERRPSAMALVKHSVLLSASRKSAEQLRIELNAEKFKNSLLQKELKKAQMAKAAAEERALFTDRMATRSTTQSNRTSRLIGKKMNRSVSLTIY
T5 sequence (Q96SW2 whole entry): as the sequence (Q96SW2 whole entry) above
T5 sequence (Q16531 whole entry partner): as the sequence (Q16531 whole entry partner) above

As to `O=C1CCC(N2Cc3cc(CN4CC=C(c5ncnc6sccc56)CC4)ccc3C2=S)C(=O)N1` (stereo not drawn) [GT-09314, 3-(5-((4-(thieno[2,3-d]pyrimidin-4-yl)-3,6-dihydropyridin-1(2H)-yl)methyl)-1-thioxoisoindolin-2-yl)piperidine-2,6-dione], the “CK1α substrate protein remaining %” value at CK1α is “B (80%< substrate protein remaining %≤ 100%)”. For the same compound, the “IKZF 1 substrate protein remaining %” value on IKZF1 was “A (0% ≤ substrate protein remaining % ≤ 80%)”. The “IKZF2 substrate protein remaining %” value at IKZF2 was “B (80%< substrate protein remaining %≤ 100%)”. Moreover, at IKZF3, the “IKZF3 substrate protein remaining %” value was “A (0% ≤ substrate protein remaining % ≤ 80%)”. For the same compound, on WEE1, the “Wee1 substrate protein remaining %” value is “A (0% ≤ substrate protein remaining % ≤ 80%)”. Further, the “GSPT1 substrate protein remaining %” value in the assay on GSPT1 was “A (0% ≤ substrate protein remaining % ≤ 80%)”. The inhibition at 0.5 µM was 80 to 100% in [1], 80 to 100% in assay [2], 80 to 100% in assay [3] and 40 to 50% in assay [4]. Moreover, the inhibition at 2 µM in assay [1] lay within 80 to 100%. Moreover, the values for the inhibition at 0.01 µM in assay [2], in [3] and in assay [4] were 5 to 10%, 10 to 20% and 5 to 10%, respectively.

For the compound `Cc1cc2c(C3=CCN(Cc4ccc5c(c4)CN(C4CCC(=O)NC4=O)C5=S)CC3)ncnc2s1` (stereo not drawn) [GT-09316, 3-(5-((4-(6-methylthieno[2,3-d]pyrimidin-4-yl)-3,6-dihydropyridin-1(2H)-yl)methyl)-1-thioxoisoindolin-2-yl)piperidine-2,6-dione], the “CK1α substrate protein remaining %” value at CK1α is reported as “B (80%< substrate protein remaining %≤ 100%)”. In addition, the “IKZF 1 substrate protein remaining %” value on IKZF1 is listed as “A (0% ≤ substrate protein remaining % ≤ 80%)”. For the same compound, on IKZF2, the “IKZF2 substrate protein remaining %” value is recorded as “B (80%< substrate protein remaining %≤ 100%)”. On IKZF3, the “IKZF3 substrate protein remaining %” value is “A (0% ≤ substrate protein remaining % ≤ 80%)”. Moreover, the “Wee1 substrate protein remaining %” value at WEE1 was “B (80%< substrate protein remaining %≤ 100%)”. The “GSPT1 substrate protein remaining %” value in the assay with GSPT1 is given as “A (0% ≤ substrate protein remaining % ≤ 80%)”. Moreover, the inhibition at 0.5 µM in assay [1] lay within 60 to 80%; in assay [2], 80 to 100%; in assay [3] it was 80 to 100%; in assay [4], 80 to 100%. In [1], the inhibition at 2 µM was 80 to 100%. Besides, the inhibition at 0.01 µM lay within 5 to 10% in assay [2], 10 to 20% in assay [3] and 30 to 40% in [4].

Regarding `Cc1sc2ncnc(C3=CCN(Cc4ccc5c(c4)CN(C4CCC(=O)NC4=O)C5=S)CC3)c2c1C` (stereo not drawn) [GT-09318, 3-(5-((4-(5,6-dimethylthieno[2,3-d]pyrimidin-4-yl)-3,6-dihydropyridin-1(2H)-yl)methyl)-1-thioxoisoindolin-2-yl)piperidine-2,6-dione], on CK1α, the “CK1α substrate protein remaining %” value is recorded as “B (80%< substrate protein remaining %≤ 100%)”. Further, on IKZF1, the “IKZF 1 substrate protein remaining %” value is given as “B (80%< substrate protein remaining %≤ 100%)”. Besides, the “IKZF2 substrate protein remaining %” value on IKZF2 is “B (80%< substrate protein remaining %≤ 100%)”. In addition, the “IKZF3 substrate protein remaining %” value at IKZF3 is on record as “A (0% ≤ substrate protein remaining % ≤ 80%)”. Also, the “Wee1 substrate protein remaining %” value on WEE1 is recorded as “A (0% ≤ substrate protein remaining % ≤ 80%)”. The “GSPT1 substrate protein remaining %” value in the assay with GSPT1 was “A (0% ≤ substrate protein remaining % ≤ 80%)”. Besides, the inhibition at 0.5 µM in assay [1] is 53 to 60%; in assay [2] it was 80 to 100%; in [3], 80 to 100%; in [4], 60 to 70%. In addition, the inhibition at 2 µM in [1] is 80 to 100%. In addition, the results for the inhibition at 0.01 µM in assay [2], in assay [3] and in assay [4] were 10 to 20%, 10 to 20% and 20 to 30%, respectively.

Consider `Cc1nc(C2=CCN(Cc3ccc4c(c3)CN(C3CCC(=O)NC3=O)C4=S)CC2)c2ccsc2n1` (stereo not drawn) [GT-09322, 3-(5-((4-(2-methylthieno[2,3-d]pyrimidin-4-yl)-3,6-dihydropyridin-1(2H)-yl)methyl)-1-thioxoisoindolin-2-yl)piperidine-2,6-dione], for which the “CK1α substrate protein remaining %” value on CK1α is recorded as “B (80%< substrate protein remaining %≤ 100%)”. On IKZF1, the “IKZF 1 substrate protein remaining %” value is recorded as “A (0% ≤ substrate protein remaining % ≤ 80%)”. Also, the “IKZF2 substrate protein remaining %” value at IKZF2 is “B (80%< substrate protein remaining %≤ 100%)”. Also, the “IKZF3 substrate protein remaining %” value at IKZF3 was “B (80%< substrate protein remaining %≤ 100%)”. Besides, the “Wee1 substrate protein remaining %” value at WEE1 is recorded as “A (0% ≤ substrate protein remaining % ≤ 80%)”. In addition, the “GSPT1 substrate protein remaining %” value in the assay with GSPT1 is on record as “A (0% ≤ substrate protein remaining % ≤ 80%)”. The inhibition at 0.5 µM in [1] was in the range of 60 to 80%; in assay [2], 80 to 100%; in assay [3], 80 to 100%; in [4], 80 to 100%. Moreover, the inhibition at 2 µM in assay [1] was 80 to 100%. Besides, the figures for the inhibition at 0.01 µM in [2], in [3] and in assay [4] were 10 to 20%, 5 to 10% and 10 to 20%, respectively.

Take `O=C1CCC(N2Cc3cc(CN4CC=C(c5ncnc6sc7c(c56)CCCC7)CC4)ccc3C2=S)C(=O)N1` (stereo not drawn) [GT-09324, 3-(5-((4-(5,6,7,8-tetrahydrobenzo[4,5]thieno[2,3-d]pyrimidin-4-yl)-3,6-dihydropyridin-1(2H)-yl)methyl)-1-thioxoisoindolin-2-yl)piperidine-2,6-dione]: the “CK1α substrate protein remaining %” value at CK1α is listed as “B (80%< substrate protein remaining %≤ 100%)”. Moreover, at IKZF1, the “IKZF 1 substrate protein remaining %” value was “B (80%< substrate protein remaining %≤ 100%)”. On IKZF2, the “IKZF2 substrate protein remaining %” value is “B (80%< substrate protein remaining %≤ 100%)”. Besides, at IKZF3, the “IKZF3 substrate protein remaining %” value is listed as “B (80%< substrate protein remaining %≤ 100%)”. The “Wee1 substrate protein remaining %” value on WEE1 is “A (0% ≤ substrate protein remaining % ≤ 80%)”. Further, the “GSPT1 substrate protein remaining %” value in the assay with GSPT1 is on record as “A (0% ≤ substrate protein remaining % ≤ 80%)”. Further, the inhibition at 0.5 µM in assay [1] fell in the range of 60 to 80%; in assay [2], 80 to 100%; in [3], 80 to 100%; in assay [4], 80 to 100%. For the same compound, the inhibition at 2 µM in [1] was in the range of 80 to 100%. Besides, the inhibition at 0.01 µM fell in the range of 10 to 20% in assay [2], 20 to 30% in assay [3] and 30 to 40% in assay [4].

Regarding `O=C1CCC(N2Cc3cc(CN4CC=C(c5ncnc6sc7c(c56)CCC7)CC4)ccc3C2=S)C(=O)N1` (stereo not drawn) [GT-09325, 3-(5-((4-(6,7-dihydro-5H-cyclopenta[4,5]thieno[2,3-d]pyrimidin-4-yl)-3,6-dihydropyridin-1(2H)-yl)methyl)-1-thioxoisoindolin-2-yl)piperidine-2,6-dione], the “CK1α substrate protein remaining %” value at CK1α is “B (80%< substrate protein remaining %≤ 100%)”. Moreover, the “IKZF 1 substrate protein remaining %” value on IKZF1 is on record as “B (80%< substrate protein remaining %≤ 100%)”. In addition, on IKZF2, the “IKZF2 substrate protein remaining %” value is “B (80%< substrate protein remaining %≤ 100%)”. For the same compound, the “IKZF3 substrate protein remaining %” value at IKZF3 is recorded as “B (80%< substrate protein remaining %≤ 100%)”. Besides, the “Wee1 substrate protein remaining %” value on WEE1 is reported as “A (0% ≤ substrate protein remaining % ≤ 80%)”. Besides, the “GSPT1 substrate protein remaining %” value with GSPT1 is “A (0% ≤ substrate protein remaining % ≤ 80%)”. The inhibition at 0.5 µM fell in the range of 60 to 80% in assay [1], 80 to 100% in assay [2], 80 to 100% in assay [3] and 80 to 100% in assay [4]. In addition, the inhibition at 2 µM in assay [1] lay within 80 to 100%. Further, the inhibition at 0.01 µM in assay [2] is 5 to 10%; in [3], -15 to -5%; in [4], 20 to 30%.
